Test results published in paper PMC7045321 (ACS Omega, 2020).

Key:
[1] = test system: S. aureus; assay: Time-kill kinetics in MHB; type: cell-based, Staphylococcus aureus; details: 4 × MIC in MHB
[2] = test system: S. aureus; assay: Time-kill kinetics in MHB with 10% serum; type: cell-based, Staphylococcus aureus; details: 4 × MIC in MHB with 10% fetal bovine serum (FBS), 37 °C

Question: With `CN[C@H](CC(C)C)C(=O)N[C@H]1C(=O)N[C@@H](CC(N)=O)C(=O)N[C@H]2C(=O)N[C@H]3C(=O)N[C@H](C(=O)N[C@H](C(=O)O)c4cc(O)cc(O)c4-c4cc3ccc4O)[C@H](O)c3ccc(c(Cl)c3)Oc3cc2cc(c3O[C@@H]2O[C@H](CO)[C@@H](O)[C@H](O)[C@H]2O[C@H]2C[C@](C)(N)[C@H](O)[C@H](C)O2)Oc2ccc(cc2Cl)[C@H]1O` [vancomycin] as the compound, how does the “log reduction after 24 h” value ([1]; 37 °C) read?
Answer: 3 log

Question: And the “time to complete eradication of viable S. aureus cells” value ([1]; ~10^5 CFU mL^–1, 37 °C, followed for 24 h)?
Answer: not complete eradication

Question: And the “log reduction in cell viability after 3 h exposure” value [2]?
Answer: 1 log
